Measurements: article PMC6748410, “A phase 2 study of an oral mTORC1/mTORC2 kinase inhibitor (CC-223) for non-pancreatic neuroendocrine tumors with or without carcinoid symptoms” (PLoS ONE, 2019)
Where “and” joins values, the source holds several entries; their conditions need not be identical. Equal entries are not always repeated. Where two headings read alike, the source gives them in different places.

How the values were obtained:
[1] = Plasma pharmacokinetics of CC-223 and metabolite M1 in patients with NET; type: in vivo, human; details: for CL/F / AUC / AUC(0-t) / Cmax / Vd/F: geometric mean (%CV, n); for Tmax / AUC / AUC(0-t) / Cmax / Vd/F: human, plasma; for Vd/F: read-out: Vz/F
Protocol: Blood for PK analysis was drawn on day 1 pre-dose and for up to 48 hours post-dose, and then on day 15 up to 8 hours post-dose. Urine on day 1 was collected within 30 minutes prior to dosing and at intervals up to 24 hours post-dose. Samples were assayed for CC-223 and the principal active metabolite (M1) using validated chiral liquid chromatography mass spectrometry. CC-223 PK parameters were calculated using dosing and sample collection times. Non-compartmental PK analysis was performed used WinNonlin Enterprise version 5.2 Model 200 and Model 210 (Certara, Princeton, NJ).

p4E-BP1 (mTORC1) = assay: Stimulated blood biomarker assay in monocytes (CD14+) for p4E-BP1 (mTORC1 inhibition); type: in vivo, human
Protocol: Central laboratories conducted serial stimulated blood biomarker assays in monocytes (CD14+) for p4E-BP1 and pPKB (also known as pAKT) for assessment of mTORC1 and mTORC2 inhibition, respectively. Monthly changes from baseline for chromogranin A (CgA), and for other serum hormones if elevated, were assayed locally.

[2] = tested on: well-differentiated NET of non-pancreatic gastrointestinal or unknown origin; assay: FDG PET SUV change from baseline to day 15 of cycle 1; type: in vivo, human
Protocol: (§1) Metabolic changes were assessed by percent change in total of standardized uptake value (SUV) of 2-^18F-fluoro-2-deoxyglucose (FDG) with PET scanning from baseline to day 15 in cycle 1. Carcinoid symptoms of flushing and diarrhea were documented monthly with a non-validated symptom questionnaire that was completed at each study visit. Patients reported whether they had experienced specific events, and the severity and/or frequency of these events. Symptom improvement was defined as ≥50% reduction in frequency and/or a 1-grade reduction in severity for each from baseline.

[3] = tested on: well-differentiated NET of non-pancreatic gastrointestinal or unknown origin; assay: Tumor response by investigator (RECIST version 1.1), PFS and OS; type: in vivo, human
Description: Tumors were restaged by the principal investigator at each site using computed tomography (CT), positron emission tomography (PET)-CT, or magnetic resonance imaging scans after every 2 cycles through cycle 6, and every 3 cycles thereafter, using Response Evaluation Criteria In Solid Tumors (RECIST) version 1.1 criteria for response.
This phase 1/2 study was not powered for inferential statistics and mostly descriptive statistics were used. All patients dosed with CC-223 were included in the safety analysis. The efficacy analysis included all patients completing at least one cycle of drug who had both baseline and one post-baseline tumor efficacy assessment, unless otherwise specified. Categorical baseline variables including tumor type-specific characteristics were summarized using frequency counts and percentage. Continuous demographic and baseline characteristic variables were summarized by descriptive statistics. A Wilcoxon signed rank test was used to analyse change from baseline in serum hormone levels at selected scheduled visits.
Best overall tumor response by investigator assessment was summarized using frequency tabulation. Waterfall plots were used to show best percentage change from baseline in the sum of length (longest diameter) of target lesions.
Relationship between PFS and NET-specific assessments such as serum hormone levels and carcinoid symptoms were investigated. The Kaplan-Meier estimate of median PFS with its two-sided 95% confidence interval [CI] was provided for each baseline category of the selected biomarkers. Kaplan-Meier plots of PFS were created by category. The raw P value of the log rank test comparing survival distribution of PFS between categories was also provided.

[4] = tested on: carcinoid symptoms of flushing and diarrhea; assay: Carcinoid symptom questionnaire (flushing, diarrhea); type: in vivo, human
Protocol: as §1

[5] = 28-day GLP toxicology study, dog; type: in vivo
Protocol: A dose of 7.5 mg/day is proposed as the starting dose in this protocol. This dose is based on the recommendations in the March 2010 FDA Guidance for Industry entitled, “S9 Nonclinical Evaluation for Anticancer Pharmaceuticals,” where a start dose for first administration in humans should be either one-tenth the STD10 in rodents, or one-sixth of the HNSTD if the nonrodent is the most appropriate species. The conversion factors from the July 2005 FDA Guidance for Industry entitled, “Estimating the Maximum Safe Starting Dose in Initial Clinical Trials for Therapeutics in Adult Healthy Volunteers,” were used to convert the animal dose to the HED. The dose was converted to milligrams based on a 60-kg human body weight.
Species Animal Dose HED (mg/kg) HED (mg) Safety Factor Start Dose (mg) […]
Since the dog was identified as the most sensitive species in the 28-day GLP toxicology studies, the start dose for the study would be 8.2 mg/day. Based on available dosage strengths of the IP, a dose of 7.5 mg/day of CC-223 is deemed to be an acceptable starting dose for this initial trial in […]
Part B will consist of approximately 230 patients with selected tumor types to further assess the safety profile and provide preliminary efficacy information. […]

[6] = tested on: mTORC1 and mTORC2 biomarkers; assay: Target biomarker inhibition at 15 mg dose level (predicted, not tested); type: in vivo, human; details: 15 mg dose level
[7] = design: method as in PMID 26177599; details: patients with advanced solid tumors; oral once daily; cited from earlier work
[8] = Rat; trial protocol; cited from earlier work
[9] = Dog; trial protocol; cited from earlier work
[10] = po, 30 mg/day, CC-223 30 mg/day oral, Day 1
[11] = po, 30 mg/day, CC-223 30 mg/day oral, Day 15, n = 1
[12] = po, 45 mg/day, CC-223 45 mg/day oral, Day 1

Compound: CO[C@H]1CC[C@H](N2C(=O)CNc3ncc(-c4ccc(C(C)(C)O)nc4)nc32)CC1 [CC-223]
- CL/F ([1]; CC-223 30 mg/day oral, Day 1): 34.0 (34.2, n = 3) L/h
- CL/F ([1]; CC-223 45 mg/day oral, Day 1): 19.8 (20.1, n = 2) L/h
- Tmax ([1]; oral, regardless of starting dose, read-out: Median Tmax): 1.5 to 3 h
- AUC [1, 10]: 819 ng·h/mL
- AUC(0-t) [1, 10]: 840 ng·h/mL
- Cmax [1, 10]: 133 ng/mL
- AUC [1, 11]: 776 ng·h/mL
- AUC(0-t) [1, 11]: 776 ng·h/mL
- Cmax [1, 11]: 154 ng/mL
- Tmax ([1]; po, 30 mg/day, median (min, max, n), CC-223 30 mg/day oral, Day 1, read-out: Tmax): 1.7 h
- Tmax ([1]; po, 30 mg/day, median (min, max, n), CC-223 30 mg/day oral, Day 15, read-out: Tmax): 1.5 h
- AUC(0-t) [1, 12]: 1800 ng·h/mL
- Cmax [1, 12]: 347 ng/mL
- AUC ([1]; po, 45 mg/day, CC-223 45 mg/day oral, Day 1, n = 1): 1940 ng·h/mL
- Tmax ([1]; po, 45 mg/day, median (min, max, n), CC-223 45 mg/day oral, Day 1, read-out: Tmax): 1.52 h
- Vd/F ([1]; CC-223 30 mg/day oral, Day 1): 290 L
- Vd/F ([1]; CC-223 45 mg/day oral, Day 1): 125 L
- p4E-BP1 median inhibition (p4E-BP1 (mTORC1); 30 mg, after multiple doses): 26%
- p4E-BP1 median inhibition (p4E-BP1 (mTORC1); 30 mg, following a single dose): 9%
- p4E-BP1 median inhibition (p4E-BP1 (mTORC1); 45 mg, 1.5 hours after a single dose): 37%
- p4E-BP1 median inhibition (p4E-BP1 (mTORC1); 45 mg, after multiple doses): 47%
- p4E-BP1 median biomarker inhibition relative to baseline (p4E-BP1 (mTORC1); across both dose level cohorts (45 mg or 30 mg), 1.5 hours after multiple dosing on day 15): > 26%
- Patients with at least a 25% reduction in SUV ([2]; 18 patients): 38.3%
- Patients with at least a 15% reduction in FDG uptake ([2]; 21 patients): 44.7%
- Mean percent decrease from baseline to day 15 in [18F]-FDG PET SUV ([2]; 31 patients, standard deviation 35.2%, P<0.0001): 32.0%
- Progressive disease (PD) ([3]; 1 of 41 evaluable patients, investigator assessment): 2.4%
- Partial response (PR) ([3]; 3 of 41 evaluable patients, investigator assessment): 7% and 7.3%
- Objective response rate (CR+PR) ([3]; 41 evaluable patients, 95% CI 1.5–19.9%): 7.3%
- Disease control rate (CR+PR+SD) ([3]; 41 evaluable patients, 95% CI 76.9–97.3%): 90% and 90.2%
- Complete response (CR) ([3]; 41 evaluable patients, investigator assessment): no patient
- Patients with tumor shrinkage of any magnitude relative to baseline ([3]; 95% CI 57.1–85.8%): 73.2%
- Median PFS in patients without carcinoid symptom improvement ([3]; ad hoc exploratory analysis, 95% CI 35.6–104.4): 48.1 weeks and 48 weeks
- Median PFS in patients with carcinoid symptom improvement ([3]; ad hoc exploratory analysis, 95% CI 72.6–not estimable): 108.4 weeks and 108 weeks
- PFS rate ([3]; at 6 months): 85%
- PFS rate ([3]; at 10 months): 64%
- OS rate ([3]; at 48 weeks): 0.97
- Duration of SD (min–max) ([3]; in vivo): 50 to 1519 days
- Median duration of SD ([3]; in vivo): 297 days
- Patients with duration of SD longer than a year ([3]; in vivo): 17 patients
- Median OS ([3]; treated population): not assessable
- Median progression-free survival (PFS) ([3]; treated population, 95% CI 10.4–28.5 months): 19.5 months
- Symptom reduction at any time during the study: both flushing and diarrhea ([4]; 5 of 13 affected patients): 39%
- Symptom reduction at any time during the study: flushing ([4]; 8 of 16 affected patients): 50%
- Symptom reduction at any time during the study: diarrhea ([4]; 9 of 22 affected patients): 41%
- HED (human equivalent dose) of HNSTD ([5]; 60-kg human body weight): 49 mg
- HED (human equivalent dose) of HNSTD ([5]; FDA conversion factors): 0.81 mg/kg
- Target biomarker inhibition [6]: modest
- Maximum tolerated dose (MTD) [7]: 45 mg/day
- STD10 (severely toxic dose in 10% of the animals tested) [8]: 10 mg/kg
- HNSTD (highest non-severely toxic dose) [9]: 1.5 mg/kg
